Molecular target: Bcl-2 protein (Homo sapiens (Human), UniProt P10415)
Assay: Bcl-2 binding TR-FRET (Time-Resolved Fluorescence-Resonance-Energy-Transfer) assay
Conditions: inhibition constant for binding to Bcl-2 protein
Text: The smaller the Ki value, the greater is the binding affinity.

Sequence of Bcl-2 protein (P10415 whole entry): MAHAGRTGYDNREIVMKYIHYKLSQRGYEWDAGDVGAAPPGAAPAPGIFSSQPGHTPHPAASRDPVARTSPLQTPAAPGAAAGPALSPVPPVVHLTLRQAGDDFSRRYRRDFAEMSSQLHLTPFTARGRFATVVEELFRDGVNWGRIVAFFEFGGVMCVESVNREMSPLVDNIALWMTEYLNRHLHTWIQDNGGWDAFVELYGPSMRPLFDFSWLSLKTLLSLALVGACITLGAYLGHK

| Compound | Ki [nM] |
| --- | --- |
| CC1(C)CCC(CN2CCN(c3ccc(C(=O)NS(=O)(=O)c4ccc(NC[C@H]5CN(C6CC6)CCO5)c([N+](=O)[O-])c4)c(Oc4cnc5[nH]ccc5c4)c3)CC2)=C(c2ccc(Cl)cc2)C1 [Compound 327, 4-(4-{[2-(4-chlorophenyl)-4,4-dimethylcyclohex-1-en-1-yl]methyl}piperazin-1-yl)-N-{[4-({[(2S)-4-cyclopropylmorpholin-2-yl]methyl}amino)-3-nitrophenyl]sulfonyl}-2-(1H-pyrrolo[2,3-b]pyridin-5-yloxy)benzamide] | < 0.01 |
| O=C(NS(=O)(=O)c1ccc(NCC2CCOCC2)c([N+](=O)[O-])c1)c1ccc(N2CCN(CC3=C(c4ccc(Cl)cc4)CC4(CC3)CC4)CC2)cc1Oc1cnc2[nH]ccc2c1 [Compound 328, 4-(4-{[5-(4-chlorophenyl)spiro[2.5]oct-5-en-6-yl]methyl}piperazin-1-yl)-N-({3-nitro-4-[(tetrahydro-2H-pyran-4-ylmethyl)amino]phenyl}sulfonyl)-2-(1H-pyrrolo[2,3-b]pyridin-5-yloxy)benzamide] | < 0.01 |
| O=C(NS(=O)(=O)c1ccc(NCC2CN(C3CC3)CCO2)c([N+](=O)[O-])c1)c1ccc(N2CCN(CC3=C(c4ccc(Cl)cc4)CC4(CC3)CC4)CC2)cc1Oc1cnc2[nH]ccc2c1 (stereo not shown) [Compound 330, 4-(4-{[5-(4-chlorophenyl)spiro[2.5]oct-5-en-6-yl]methyl}piperazin-1-yl)-N-[(4-{[(4-cyclopropylmorpholin-2-yl)methyl]amino}-3-nitrophenyl)sulfonyl]-2-(1H-pyrrolo[2,3-b]pyridin-5-yloxy)benzamide] | < 0.01 |
| CC1(C)CCC(CN2CCN(c3ccc(C(=O)NS(=O)(=O)c4ccc(NC5CCC(N(CCC#N)C6CC6)CC5)c([N+](=O)[O-])c4)c(Oc4cnc5[nH]ccc5c4)c3)CC2)=C(c2ccc(Cl)cc2)C1 (stereo not shown) [Compound 340, 4-(4-{[2-(4-chlorophenyl)-4,4-dimethylcyclohex-1-en-1-yl]methyl}piperazin-1-yl)-N-{[4-({4-[(2-cyanoethyl)(cyclopropyl)amino]cyclohexyl}amino)-3-nitrophenyl]sulfonyl}-2-(1H-pyrrolo[2,3-b]pyridin-5-yloxy)benzamide] | < 0.01 |
| C[C@]1(O)CC[C@@H](COc2ncc(S(=O)(=O)NC(=O)c3ccc(N4CCN(CC5=C(c6ccc(Cl)cc6)CC6(CC5)CC6)CC4)cc3Oc3cnc4[nH]ccc4c3)cc2Cl)CC1 [Compound 341, N-({5-chloro-6-[(trans-4-hydroxy-4-methylcyclohexyl)methoxy]pyridin-3-yl}sulfonyl)-4-(4-{[5-(4-chlorophenyl)spiro[2.5]oct-5-en-6-yl]methyl}piperazin-1-yl)-2-(1H-pyrrolo[2,3-b]pyridin-5-yloxy)benzamide] | < 0.01 |
| CC1(C)CCC(CN2CCN(c3ccc(C(=O)NS(=O)(=O)c4cnc(OCC5CCc6nccn6C5)c(Cl)c4)c(Oc4cnc5[nH]ccc5c4)c3)CC2)=C(c2ccc(Cl)cc2)C1 (stereo not shown) [Compound 342, 4-(4-{[2-(4-chlorophenyl)-4,4-dimethylcyclohex-1-en-1-yl]methyl}piperazin-1-yl)-N-{[5-chloro-6-(5,6,7,8-tetrahydroimidazo[1,2-a]pyridin-6-ylmethoxy)pyridin-3-yl]sulfonyl}-2-(1H-pyrrolo[2,3-b]pyridin-5-yloxy)benzamide] | < 0.01 |
| O=C(NS(=O)(=O)c1cnc(OCC2(F)CCN(C3COC3)CC2)c(Cl)c1)c1ccc(N2CCN(CC3=C(c4ccc(Cl)cc4)CC4(CC3)CC4)CC2)cc1Oc1cnc2[nH]ccc2c1 [Compound 345, N-[(5-chloro-6-{[4-fluoro-1-(oxetan-3-yl)piperidin-4-yl]methoxy}pyridin-3-yl)sulfonyl]-4-(4-{[5-(4-chlorophenyl)spiro[2.5]oct-5-en-6-yl]methyl}piperazin-1-yl)-2-(1H-pyrrolo[2,3-b]pyridin-5-yloxy)benzamide] | < 0.01 |
| CC1(C)CCC(CN2CCN(c3ccc(C(=O)NS(=O)(=O)c4cnc(OC[C@]5(F)CC[C@@H](O)CC5)c(Cl)c4)c(Oc4cnc5[nH]ccc5c4)c3)CC2)=C(c2ccc(Cl)cc2)C1 [Compound 350, N-({5-chloro-6-[(cis-1-fluoro-4-hydroxycyclohexyl)methoxy]pyridin-3-yl}sulfonyl)-4-(4-{[2-(4-chlorophenyl)-4,4-dimethylcyclohex-1-en-1-yl]methyl}piperazin-1-yl)-2-(1H-pyrrolo[2,3-b]pyridin-5-yloxy)benzamide] | < 0.01 |
| CC1(C)CCC(CN2CCN(c3ccc(C(=O)NS(=O)(=O)c4ccc(OCC5CCC6(CC5)COC6)c([N+](=O)[O-])c4)c(Oc4cnc5[nH]ccc5c4)c3)CC2)=C(c2ccc(Cl)cc2)C1 [Compound 351, 4-(4-{[2-(4-chlorophenyl)-4,4-dimethylcyclohex-1-en-1-yl]methyl}piperazin-1-yl)-N-{[3-nitro-4-(2-oxaspiro[3.5]non-7-ylmethoxy)phenyl]sulfonyl}-2-(1H-pyrrolo[2,3-b]pyridin-5-yloxy)benzamide] | < 0.01 |
| O=C(NS(=O)(=O)c1ccc(NCC2CCOCC2)c([N+](=O)[O-])c1)c1ccc(N2CCN(CC3=C(c4ccc(Cl)cc4)CCC(CF)(CF)C3)CC2)cc1Oc1cnc2[nH]ccc2c1 [Compound 353, 4-(4-{[2-(4-chlorophenyl)-5,5-bis(fluoromethyl)cyclohex-1-en-1-yl]methyl}piperazin-1-yl)-N-({3-nitro-4-[(tetrahydro-2H-pyran-4-ylmethyl)amino]phenyl}sulfonyl)-2-(1H-pyrrolo[2,3-b]pyridin-5-yloxy)benzamide] | < 0.01 |
| CC1(C)CCC(CN2CCN(c3ccc(C(=O)NS(=O)(=O)c4ccc(OCC5(F)CCN(C6COC6)CC5)c(C#N)c4)c(Oc4cnc5[nH]ccc5c4)c3)CC2)=C(c2ccc(Cl)cc2)C1 [Compound 357, 4-(4-{[2-(4-chlorophenyl)-4,4-dimethylcyclohex-1-en-1-yl]methyl}piperazin-1-yl)-N-[(3-cyano-4-{[4-fluoro-1-(oxetan-3-yl)piperidin-4-yl]methoxy}phenyl)sulfonyl]-2-(1H-pyrrolo[2,3-b]pyridin-5-yloxy)benzamide] | < 0.01 |
| CC[C@]1(O)CC[C@@H](CNc2ccc(S(=O)(=O)NC(=O)c3ccc(N4CCN(CC5=C(c6ccc(Cl)cc6)CC(C)(C)CC5)CC4)cc3Oc3cnc4[nH]ccc4c3)cc2[N+](=O)[O-])CC1 [Compound 358, 4-(4-{[2-(4-chlorophenyl)-4,4-dimethylcyclohex-1-en-1-yl]methyl}piperazin-1-yl)-N-[(4-{[(trans-4-ethyl-4-hydroxycyclohexyl)methyl]amino}-3-nitrophenyl)sulfonyl]-2-(1H-pyrrolo[2,3-b]pyridin-5-yloxy)benzamide] | < 0.01 |
| CC[C@]1(O)CC[C@H](CNc2ccc(S(=O)(=O)NC(=O)c3ccc(N4CCN(CC5=C(c6ccc(Cl)cc6)CC(C)(C)CC5)CC4)cc3Oc3cnc4[nH]ccc4c3)cc2[N+](=O)[O-])CC1 [Compound 359, 4-(4-{[2-(4-chlorophenyl)-4,4-dimethylcyclohex-1-en-1-yl]methyl}piperazin-1-yl)-N-[(4-{[(cis-4-ethyl-4-hydroxycyclohexyl)methyl]amino}-3-nitrophenyl)sulfonyl]-2-(1H-pyrrolo[2,3-b]pyridin-5-yloxy)benzamide] | < 0.01 |
| COCC1(C)CCC(c2ccc(Cl)cc2)=C(CN2CCN(c3ccc(C(=O)NS(=O)(=O)c4ccc(NCC5CCOCC5)c([N+](=O)[O-])c4)c(Oc4cnc5[nH]ccc5c4)c3)CC2)C1 (stereo not shown) [Compound 360, 4-(4-{[2-(4-chlorophenyl)-5-(methoxymethyl)-5-methylcyclohex-1-en-1-yl]methyl}piperazin-1-yl)-N-({3-nitro-4-[(tetrahydro-2H-pyran-4-ylmethyl)amino]phenyl}sulfonyl)-2-(1H-pyrrolo[2,3-b]pyridin-5-yloxy)benzamide] | < 0.01 |
| CC1(C)CCC(CN2CCN(c3ccc(C(=O)NS(=O)(=O)c4ccc(NC[C@H]5CN(C6COC6)CCO5)c([N+](=O)[O-])c4)c(Oc4cnc5[nH]ccc5c4)c3)CC2)=C(c2ccc(Cl)cc2)C1 [Compound 361, 4-(4-{[2-(4-chlorophenyl)-4,4-dimethylcyclohex-1-en-1-yl]methyl}piperazin-1-yl)-N-{[3-nitro-4-({[(2S)-4-(oxetan-3-yl)morpholin-2-yl]methyl}amino)phenyl]sulfonyl}-2-(1H-pyrrolo[2,3-b]pyridin-5-yloxy)benzamide] | < 0.01 |
| CC1(C)CCC(CN2CCN(c3ccc(C(=O)NS(=O)(=O)c4ccc(OC[C@H]5CC[C@@](C)(O)CC5)c(Cl)c4)c(Oc4cnc5[nH]ccc5c4)c3)CC2)=C(c2ccc(Cl)cc2)C1 [Compound 362, N-({3-chloro-4-[(trans-4-hydroxy-4-methylcyclohexyl)methoxy]phenyl}sulfonyl)-4-(4-{[2-(4-chlorophenyl)-4,4-dimethylcyclohex-1-en-1-yl]methyl}piperazin-1-yl)-2-(1H-pyrrolo[2,3-b]pyridin-5-yloxy)benzamide] | 0.016 |
| CC1(C)CCC(CN2CCN(c3ccc(C(=O)NS(=O)(=O)c4cnc(NCC5CCOCC5)c([N+](=O)[O-])c4)c(Oc4cnc5[nH]ccc5c4)c3)CC2)=C(c2ccc(Cl)cc2)C1 [Compound 364, 4-(4-{[2-(4-chlorophenyl)-4,4-dimethylcyclohex-1-en-1-yl]methyl}piperazin-1-yl)-N-({5-nitro-6-[(tetrahydro-2H-pyran-4-ylmethyl)amino]pyridin-3-yl}sulfonyl)-2-(1H-pyrrolo[2,3-b]pyridin-5-yloxy)benzamide] | < 0.01 |
| CC1(C)CCC(CN2CCN(c3ccc(C(=O)NS(=O)(=O)c4ccc(NCC5CCC6(CC5)COC6)c([N+](=O)[O-])c4)c(Oc4cnc5[nH]ccc5c4)c3)CC2)=C(c2ccc(Cl)cc2)C1 [Compound 365, 4-(4-{[2-(4-chlorophenyl)-4,4-dimethylcyclohex-1-en-1-yl]methyl}piperazin-1-yl)-N-({3-nitro-4-[(2-oxaspiro[3.5]non-7-ylmethyl)amino]phenyl}sulfonyl)-2-(1H-pyrrolo[2,3-b]pyridin-5-yloxy)benzamide] | < 0.01 |
| CC1(C)CCC(CN2CCN(c3ccc(C(=O)NS(=O)(=O)c4cnc(NC[C@H]5CC[C@@](C)(O)CC5)c([N+](=O)[O-])c4)c(Oc4cnc5[nH]ccc5c4)c3)CC2)=C(c2ccc(Cl)cc2)C1 [Compound 371, 4-(4-{[2-(4-chlorophenyl)-4,4-dimethylcyclohex-1-en-1-yl]methyl}piperazin-1-yl)-N-[(6-{[(trans-4-hydroxy-4-methylcyclohexyl)methyl]amino}-5-nitropyridin-3-yl)sulfonyl]-2-(1H-pyrrolo[2,3-b]pyridin-5-yloxy)benzamide] | < 0.001 |
